These results are taken from publication PMC8881610 (Nature Communications, 2022).

The target of one assay is T1, GIPR (Homo sapiens, UniProt P48546).
T1 sequence (P48546 22-466): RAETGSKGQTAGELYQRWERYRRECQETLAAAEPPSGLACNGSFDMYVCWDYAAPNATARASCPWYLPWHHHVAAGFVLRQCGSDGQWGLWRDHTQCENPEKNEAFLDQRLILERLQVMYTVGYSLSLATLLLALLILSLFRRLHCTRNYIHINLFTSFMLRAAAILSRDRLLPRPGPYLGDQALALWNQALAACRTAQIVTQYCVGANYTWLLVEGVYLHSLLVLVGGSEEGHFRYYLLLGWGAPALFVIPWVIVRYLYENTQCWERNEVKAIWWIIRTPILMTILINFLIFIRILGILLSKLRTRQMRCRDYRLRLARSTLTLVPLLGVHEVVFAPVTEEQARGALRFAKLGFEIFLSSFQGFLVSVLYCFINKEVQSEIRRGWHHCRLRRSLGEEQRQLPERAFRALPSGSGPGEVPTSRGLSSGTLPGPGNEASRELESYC
The assay can be described thus: Whole-cell binding assay, competition with 125I-GIP1-42. On the set-up: acylated tirzepatide to the full-length or modified; Flag; expressed in transfected cells. As for the experimental part: (§1) Human embryonic kidney 293 cells containing SV40 large T-antigen (HEK293T) were cultured in DMEM (Gibco) supplemented with 10% (v/v) fetal bovine serum (FBS, Gibco), 1 mM sodium pyruvate (Gibco) and 100 units/mL penicillin and 100 μg/mL streptomycin at 37 °C in 5% CO2. Chinese hamster ovary (CHO-K1) cells were cultured in F-12 (Gibco) containing 10% FBS, 100 units/mL penicillin and 100 μg/mL streptomycin at 37 °C in 5% CO2. For cAMP and receptor expression assays, HEK293T cells were seeded into 6-well cell culture plates at a density of 7 × 10^5 cells per well. After overnight incubation, cells were transfected with GIPR, GLP-1R or GCGR construct using Lipofectamine 2000 or Lipofectamine 3000 transfection reagent (Invitrogen). For whole-cell binding assay, CHO-K1 cells were seeded into 96-well fibronectin-treated cell culture plates at a density of 3 × 10^4 cells per well. After overnight incubation, cells were transfected with GIPR, GLP-1R or GCGR construct using Lipofectamine 2000 transfection reagent (Invitrogen). Following 24 h culturing, the transfected cells were ready for use.
For GIPR, CHO-K1 cells were cultured in F-12 medium with 10% FBS and seeded at a density of 30,000 cells/well in Isoplate-96 plates (PerkinElmer). The WT or mutant GIPR was transiently transfected using Lipofectamine 2000 transfection reagent as previous described. They were then washed twice using F-12 with 0.1% BSA or 0.1% casein, 33 mM HEPES, and incubated for 2 h at 37 °C. […] Following incubation, cells were washed three times with ice-cold PBS and lysed by addition of 50 μL lysis buffer (PBS supplemented with 20 mM Tris-HCl, 1% Triton X-100, pH 7.4). Fifty µL of scintillation cocktail (OptiPhase SuperMix, PerkinElmer) were added and the plates were subsequently counted for radioactivity (counts per minute, CPM) in a MicroBeta^2 microplate counter (PerkinElmer).

A further assay addresses GLP-1R (Homo sapiens, UniProt P43220). In words: cAMP accumulation assay, GLP-1R WT, mutant or modified constructs. The class given is cell-based. On the set-up: Flag; expressed in transfected cells; host or cells: HEK293T. To be noted: HEK293T; for Emax: HEK-293T. As for the experimental part:
as §1
The human GLP-1R was modified with its native signal sequence (M1-P23) replaced by the HA signal peptide to facilitate receptor expression. To obtain a GLP-1R–Gs complex with good homogeneity and stability, we used the NanoBiT tethering strategy, in which the C terminus of GLP-1R was directly attached to LgBiT subunit followed by a TEV protease cleavage site and a double MBP tag. […] The constructs were cloned into both pcDNA3.1 and pFastBac vectors for functional assays in mammalian cells and protein expression in insect cells, respectively. Other constructs including the full-length and various mutants of human GLP-1R were cloned into pcDNA3.1 vector for cAMP accumulation and whole-cell binding assays.
For GIPR, GLP-1R and GCGR, multi-targeting agonist stimulated cAMP accumulation was measured by a LANCE Ultra cAMP kit (PerkinElmer). After 24 h culture, the transfected cells were seeded into 384-well microtiter plates at a density of 3,000 cells per well in HBSS supplemented with 5 mM HEPES, 0.1% (w/v) BSA or 0.1% (w/v) casein and 0.5 mM 3-isobutyl-1-methylxanthine. The cells were stimulated with different concentrations of peptide agonists for 40 min at RT. Eu-cAMP tracer and ULight^TM-anti-cAMP were then diluted by cAMP detection buffer and added to the plates separately to terminate the reaction. Plates were incubated at RT for 1 h and the fluorescence intensity measured at 620 nm and […] by an EnVision multilabel plate reader (PerkinElmer).
For orientation: Changes in cAMP serve as a functional read-out for many G protein-coupled receptors.

Another assay deals with GCGR (Homo sapiens, UniProt P47871). The assay can be described thus: Whole-cell binding assay, competition with 125I-GCG. Also on record: V5 (C); 6×His (C); expressed in transfected cells; host or cells: CHO-K1. The protocol:
as §1
For GLP-1R and GCGR, CHO-K1 cells (30,000 cells/well) were seeded into Isoplate-96 plates and incubated for 24 h at 37 °C in 5% CO2. The WT or mutant constructs were transiently transfected using Lipofectamine 2000 transfection reagent as previous described. They were then washed twice using F-12 with 0.1% BSA or 0.1% casein, 33 mM HEPES, and incubated for 2 h at 37 °C. […] Cells were washed three times with ice-cold PBS and lysed in PBS with 1% Triton X-100, 20 mM Tris-HCl. After addition of scintillation cocktail (PerkinElmer), radioactivity (CPM) was counted on a MicroBeta^2 microplate counter (PerkinElmer). Data were normalized to the WT response and analyzed using three-parameter logistic equation.

Setting [1] is: Fig. 7c receptor binding profile, n = 3 in duplicate, SEM, read-out: GIPR (pIC50 ± S.E.M.) (converted).
Where [2] appears, read: GIPR WT, 0.1% casein, CHO-K1, read-out: Binding pIC50 (converted).
Where [3] appears, read: GIPR WT, CHO-K1, read-out: binding pIC50 (converted).
[4] abbreviates: GLP-1R WT, 0.1% BSA, read-out: cAMP accumulation Emax.
Setting [5] is: GLP-1R WT, 0.1% casein, read-out: cAMP accumulation Emax.

A word on the Emax: it is the maximal effect, on the per cent scale that the assay sets.

SMILES strings stand for the structures. Where “and” joins values, the source holds several entries; their conditions need not be identical. Equal entries are not always repeated. Where two headings read alike, the source gives them in different places.

Sequence of GCGR (P47871 26-477): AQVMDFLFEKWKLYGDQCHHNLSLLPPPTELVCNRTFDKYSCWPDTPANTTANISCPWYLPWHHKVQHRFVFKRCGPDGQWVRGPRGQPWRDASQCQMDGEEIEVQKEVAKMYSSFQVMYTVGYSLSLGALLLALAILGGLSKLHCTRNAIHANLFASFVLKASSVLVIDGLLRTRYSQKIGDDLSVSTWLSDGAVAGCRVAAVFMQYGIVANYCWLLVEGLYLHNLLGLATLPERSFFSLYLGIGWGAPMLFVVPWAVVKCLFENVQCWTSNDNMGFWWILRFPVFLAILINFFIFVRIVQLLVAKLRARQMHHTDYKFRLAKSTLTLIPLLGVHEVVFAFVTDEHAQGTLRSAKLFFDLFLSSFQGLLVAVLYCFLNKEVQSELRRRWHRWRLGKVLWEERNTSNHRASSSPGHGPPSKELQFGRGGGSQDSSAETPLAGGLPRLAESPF
Sequence of GLP-1R (P43220 24-463): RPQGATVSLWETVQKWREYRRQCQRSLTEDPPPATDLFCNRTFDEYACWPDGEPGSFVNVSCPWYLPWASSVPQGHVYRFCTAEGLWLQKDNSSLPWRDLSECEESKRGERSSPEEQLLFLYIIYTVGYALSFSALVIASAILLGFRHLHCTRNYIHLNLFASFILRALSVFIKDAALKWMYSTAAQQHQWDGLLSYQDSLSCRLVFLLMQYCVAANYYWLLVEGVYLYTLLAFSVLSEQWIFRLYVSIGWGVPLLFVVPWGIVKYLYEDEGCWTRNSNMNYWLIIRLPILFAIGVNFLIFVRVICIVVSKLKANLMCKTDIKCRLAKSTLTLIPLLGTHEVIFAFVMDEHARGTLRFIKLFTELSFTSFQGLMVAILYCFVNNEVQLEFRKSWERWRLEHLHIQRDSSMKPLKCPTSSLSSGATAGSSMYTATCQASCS

As to `CCCCCCCCCCCCCCCC(=O)N[C@@H](CCC(=O)NCCCC[C@H](NC(=O)[C@H](CC(=O)O)NC(=O)[C@H](CO)NC(=O)[C@@H](NC(=O)[C@H](Cc1ccccc1)NC(=O)[C@@H](NC(=O)CNC(=O)[C@H](CCC(N)=O)NC(=O)C(C)(C)NC(=O)[C@@H](N)Cc1c[nH]cn1)[C@@H](C)O)[C@@H](C)O)C(=O)N[C@@H](CO)C(=O)N[C@@H](CCCCN)C(=O)N[C@@H](Cc1ccc(O)cc1)C(=O)N[C@@H](CC(C)C)C(=O)N[C@@H](CC(=O)O)C(=O)N[C@@H](CCC(=O)O)C(=O)N[C@@H](CCCNC(=N)N)C(=O)N[C@@H](C)C(=O)N[C@@H](C)C(=O)N[C@@H](CCC(N)=O)C(=O)N[C@@H](CC(=O)O)C(=O)N[C@@H](Cc1ccccc1)C(=O)N[C@H](C(=O)N[C@@H](CCC(N)=O)C(=O)N[C@@H](Cc1c[nH]c2ccccc12)C(=O)N[C@@H](CC(C)C)C(=O)N[C@@H](CC(C)C)C(=O)N[C@@H](CC(=O)O)C(=O)NCC(=O)NCC(=O)N1CCC[C@H]1C(=O)N[C@@H](CO)C(=O)N[C@@H](CO)C(=O)NCC(=O)N[C@@H](C)C(=O)N1CCC[C@H]1C(=O)N1CCC[C@H]1C(=O)N1CCC[C@H]1C(=O)N[C@@H](CO)C(N)=O)C(C)C)C(=O)O` [Peptide 20], the IC50 was 6.61 nM at GIPR (setting [1]); 13.2 nM at GIPR (GIPR WT, 0.1% BSA, CHO-K1, read-out: Binding pIC50 (converted)); 3.39 nM on GIPR (setting [2]); 18.2 nM and 10.7 nM at GIPR (setting [3]); 107 nM on GCGR (Fig. 7c receptor binding profile, n = 3 in duplicate, SEM, read-out: GCGR (pIC50 ± S.E.M.) (converted)); 55 nM at GCGR (GCGR WT, 0.1% BSA, CHO-K1, read-out: Binding pIC50 (converted)). The IC50 at GCGR (GCGR WT, 0.1% casein, CHO-K1, read-out: Binding pIC50 (converted)) was 16.6 nM; at GCGR (GCGR WT, CHO-K1, read-out: binding pIC50 (converted)) it was 89.1 nM. The “binding Span” value at GIPR (GIPR WT, 0.1% casein, CHO-K1) worked out at 99.92 ± 6.37; on GIPR (GIPR WT, CHO-K1), 97.43 ± 3.89 % WT; on GCGR (GCGR WT, CHO-K1), 99.29 ± 3.10 % WT. The EC50 was 0.00269 nM at GLP-1R (GLP-1R WT, read-out: cAMP pEC50 (converted)) and 0.00123 nM at GLP-1R (GLP-1R, n = 4, SEM, read-out: cAMP pEC50 ± S.E.M. (converted)). The Emax at GLP-1R (setting [4]) was 99.24 ± 0.96%; on GLP-1R (setting [5]), 98.5 ± 1.33%; on GLP-1R (GLP-1R WT, read-out: cAMP Emax) it was 99.6 ± 1.37%; on GLP-1R (GLP-1R, n = 4, SEM, read-out: cAMP Emax ± S.E.M.), 99.6 ± 1.17%.
As to `CC[C@H](C)[C@H](NC(=O)[C@H](CC(C)C)NC(=O)[C@H](Cc1c[nH]c2ccccc12)NC(=O)[C@H](CCC(N)=O)NC(=O)[C@@H](NC(=O)[C@H](Cc1ccccc1)NC(=O)[C@H](C)NC(=O)[C@H](CCCCNC(=O)COCCOCCNC(=O)COCCOCCNC(=O)CC[C@H](NC(=O)CCCCCCCCCCCCCCCCCCC(=O)O)C(=O)O)NC(=O)[C@H](CCC(N)=O)NC(=O)[C@H](C)NC(=O)[C@@H](NC(=O)[C@H](CCCCN)NC(=O)[C@H](CC(=O)O)NC(=O)[C@H](CC(C)C)NC(=O)C(C)(C)NC(=O)[C@@H](NC(=O)[C@H](CO)NC(=O)[C@H](Cc1ccc(O)cc1)NC(=O)[C@H](CC(=O)O)NC(=O)[C@H](CO)NC(=O)[C@@H](NC(=O)[C@H](Cc1ccccc1)NC(=O)[C@@H](NC(=O)CNC(=O)[C@H](CCC(=O)O)NC(=O)C(C)(C)NC(=O)[C@@H](N)Cc1ccc(O)cc1)[C@@H](C)O)[C@@H](C)O)[C@@H](C)CC)[C@@H](C)CC)C(C)C)C(=O)N[C@@H](C)C(=O)NCC(=O)NCC(=O)N1CCC[C@H]1C(=O)N[C@@H](CO)C(=O)N[C@@H](CO)C(=O)NCC(=O)N[C@@H](C)C(=O)N1CCC[C@H]1C(=O)N1CCC[C@H]1C(=O)N1CCC[C@H]1C(=O)N[C@@H](CO)C(N)=O` [Tirzepatide], the IC50 on GIPR (setting [1]) was 31.6 nM; at GIPR (setting [2]), 3.16 nM; on GIPR (setting [3]) it was 89.1 nM and 97.7 nM; at GIPR (GIPR, effect of tirzepatide acylation, CHO-K1, read-out: binding pIC50 (converted)), 105 nM. Besides, the “binding Span” value was 92.95 ± 3.97 at GIPR (GIPR WT, 0.1% casein, CHO-K1) and 102.92 ± 6.94 % WT at GIPR (GIPR WT, CHO-K1). Further, the Emax on GLP-1R (setting [4]) is 99.7 ± 1.5%; at GLP-1R (setting [5]) it was 99.1 ± 1.73%. The “GCGR (pIC50 ± S.E.M.)” value on GCGR (Fig. 7c receptor binding profile, n = 3 in duplicate) was “N.B”.
